Legend:
Test in all cases: relative viability (nuclei count vs DMSO), 5 days (fraction); higher = more cells survive
BEN = system: BEN
Method in brief: (§1)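 Nuclei were stained with Hoechst during a one-step fixation (final 0.05% Triton X-100, 1% formaldehyde, 1 ug/ml Hoechst) carried out 5 days after dosing, then counted on 4× images. The cells, lung cancer lines in 1536-well plates, had been dosed by pin tool the day after seeding with one drug alone or a fixed anchor-drug dose plus five library-drug doses (not always all listed) in √10 steps. Relative viability is the nuclei count in treated wells divided by that in vehicle wells, and each value is the median of duplicate plates.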

CAL-12T = system: CAL-12T
Method in brief: as §1

COR-L23 = system: COR-L23
Method in brief: as §1

HCC-366 = system: HCC-366
Method in brief: as §1

LOU-NH91 = system: LOU-NH91
Method in brief: as §1

LU99A = system: LU99A
Method in brief: as §1

NCI-H1355 = system: NCI-H1355
Method in brief: as §1

NCI-H1437 = system: NCI-H1437
Method in brief: as §1

NCI-H1563 = system: NCI-H1563
Method in brief: as §1

NCI-H1650 = system: NCI-H1650
Method in brief: as §1

NCI-H1651 = system: NCI-H1651
Method in brief: as §1

NCI-H1734 = system: NCI-H1734
Method in brief: as §1

NCI-H1793 = system: NCI-H1793
Method in brief: as §1

NCI-H1975 = system: NCI-H1975
Method in brief: as §1

NCI-H2023 = system: NCI-H2023
Method in brief: as §1

NCI-H2085 = system: NCI-H2085
Method in brief: as §1

NCI-H2342 = system: NCI-H2342
Method in brief: as §1

NCI-H358 = system: NCI-H358
Method in brief: as §1

NCI-H441 = system: NCI-H441
Method in brief: as §1

NCI-H460 = system: NCI-H460
Method in brief: as §1

NCI-H838 = system: NCI-H838
Method in brief: as §1

SK-LU-1 = system: SK-LU-1
Method in brief: as §1

## COc1cc2nccc(Oc3ccc(NC(=O)Nc4cc(C)on4)c(Cl)c3)c2cc1OC [Tivozanib] + COc1cc2c(Oc3ccc(NC(=O)C4(C(=O)Nc5ccc(F)cc5)CC4)cc3F)ccnc2cc1OCCCN1CCOCC1 [Foretinib] (partner 0.25 µM)
BEN; first compound 0.005 µM
  relative viability: 0.559
BEN; first compound 0.01581 µM
  relative viability: 0.789
BEN; first compound 0.05 µM
  relative viability: 0.731
BEN; first compound 0.1581 µM
  relative viability: 0.25
BEN; first compound 0.5 µM
  relative viability: 0.456
CAL-12T; first compound 0.005 µM
  relative viability: 1.07
CAL-12T; first compound 0.01581 µM
  relative viability: 0.998
CAL-12T; first compound 0.05 µM
  relative viability: 1.11
CAL-12T; first compound 0.1581 µM
  relative viability: 1.24
CAL-12T; first compound 0.5 µM
  relative viability: 0.916
COR-L23; first compound 0.005 µM
  relative viability: 0.929
COR-L23; first compound 0.01581 µM
  relative viability: 0.943
COR-L23; first compound 0.05 µM
  relative viability: 1.07
COR-L23; first compound 0.1581 µM
  relative viability: 0.976
COR-L23; first compound 0.5 µM
  relative viability: 0.787
HCC-366; first compound 0.005 µM
  relative viability: 0.934
HCC-366; first compound 0.01581 µM
  relative viability: 0.932
HCC-366; first compound 0.05 µM
  relative viability: 0.9
HCC-366; first compound 0.1581 µM
  relative viability: 0.969
HCC-366; first compound 0.5 µM
  relative viability: 0.861
LOU-NH91; first compound 0.005 µM
  relative viability: 0.874
LOU-NH91; first compound 0.01581 µM
  relative viability: 0.974
LOU-NH91; first compound 0.05 µM
  relative viability: 0.993
LOU-NH91; first compound 0.1581 µM
  relative viability: 0.982
LOU-NH91; first compound 0.5 µM
  relative viability: 0.962
LU99A; first compound 0.005 µM
  relative viability: 0.663
LU99A; first compound 0.01581 µM
  relative viability: 0.747
LU99A; first compound 0.05 µM
  relative viability: 0.836
LU99A; first compound 0.1581 µM
  relative viability: 0.653
LU99A; first compound 0.5 µM
  relative viability: 0.812
NCI-H1355; first compound 0.005 µM
  relative viability: 0.937
NCI-H1355; first compound 0.01581 µM
  relative viability: 0.978
NCI-H1355; first compound 0.05 µM
  relative viability: 0.975
NCI-H1355; first compound 0.1581 µM
  relative viability: 0.929
NCI-H1355; first compound 0.5 µM
  relative viability: 0.966
NCI-H1437; first compound 0.005 µM
  relative viability: 1.1
NCI-H1437; first compound 0.01581 µM
  relative viability: 1.22
NCI-H1437; first compound 0.05 µM
  relative viability: 1.18
NCI-H1437; first compound 0.1581 µM
  relative viability: 1.24
NCI-H1437; first compound 0.5 µM
  relative viability: 1.25
NCI-H1563; first compound 0.005 µM
  relative viability: 0.853
NCI-H1563; first compound 0.01581 µM
  relative viability: 1.01
NCI-H1563; first compound 0.05 µM
  relative viability: 0.888
NCI-H1563; first compound 0.1581 µM
  relative viability: 0.847
NCI-H1563; first compound 0.5 µM
  relative viability: 0.867
NCI-H1650; first compound 0.005 µM
  relative viability: 0.955
NCI-H1650; first compound 0.01581 µM
  relative viability: 1.18
NCI-H1650; first compound 0.05 µM
  relative viability: 1.15
NCI-H1650; first compound 0.1581 µM
  relative viability: 0.935
NCI-H1650; first compound 0.5 µM
  relative viability: 1.08
NCI-H1651; first compound 0.005 µM
  relative viability: 0.784
NCI-H1651; first compound 0.01581 µM
  relative viability: 0.78
NCI-H1651; first compound 0.05 µM
  relative viability: 0.842
NCI-H1651; first compound 0.1581 µM
  relative viability: 0.645
NCI-H1651; first compound 0.5 µM
  relative viability: 0.831
NCI-H1734; first compound 0.005 µM
  relative viability: 0.88
NCI-H1734; first compound 0.01581 µM
  relative viability: 0.888
NCI-H1734; first compound 0.05 µM
  relative viability: 0.913
NCI-H1734; first compound 0.1581 µM
  relative viability: 0.823
NCI-H1734; first compound 0.5 µM
  relative viability: 0.863
NCI-H1793; first compound 0.005 µM
  relative viability: 0.559
NCI-H1793; first compound 0.01581 µM
  relative viability: 0.7
NCI-H1793; first compound 0.05 µM
  relative viability: 0.685
NCI-H1793; first compound 0.1581 µM
  relative viability: 0.479
NCI-H1793; first compound 0.5 µM
  relative viability: 0.776
NCI-H1975; first compound 0.005 µM
  relative viability: 0.938
NCI-H1975; first compound 0.01581 µM
  relative viability: 0.967
NCI-H1975; first compound 0.05 µM
  relative viability: 1.04
NCI-H1975; first compound 0.1581 µM
  relative viability: 0.965
NCI-H1975; first compound 0.5 µM
  relative viability: 0.918
NCI-H2023; first compound 0.005 µM
  relative viability: 0.856
NCI-H2023; first compound 0.01581 µM
  relative viability: 0.703
NCI-H2023; first compound 0.05 µM
  relative viability: 0.989
NCI-H2023; first compound 0.1581 µM
  relative viability: 0.825
NCI-H2023; first compound 0.5 µM
  relative viability: 0.697
NCI-H2085; first compound 0.005 µM
  relative viability: 0.883
NCI-H2085; first compound 0.01581 µM
  relative viability: 0.884
NCI-H2085; first compound 0.05 µM
  relative viability: 0.831
NCI-H2085; first compound 0.1581 µM
  relative viability: 1.02
NCI-H2085; first compound 0.5 µM
  relative viability: 1.01
NCI-H2342; first compound 0.005 µM
  relative viability: 0.96
NCI-H2342; first compound 0.01581 µM
  relative viability: 1.11
NCI-H2342; first compound 0.05 µM
  relative viability: 1.11
NCI-H2342; first compound 0.5 µM
  relative viability: 1.05
NCI-H358; first compound 0.005 µM
  relative viability: 0.571
NCI-H358; first compound 0.01581 µM
  relative viability: 0.672
NCI-H358; first compound 0.05 µM
  relative viability: 0.732
NCI-H358; first compound 0.1581 µM
  relative viability: 0.639
NCI-H358; first compound 0.5 µM
  relative viability: 0.716
NCI-H441; first compound 0.005 µM
  relative viability: 0.838
NCI-H441; first compound 0.01581 µM
  relative viability: 0.893
NCI-H441; first compound 0.05 µM
  relative viability: 1.12
NCI-H441; first compound 0.1581 µM
  relative viability: 1.11
NCI-H441; first compound 0.5 µM
  relative viability: 0.934
NCI-H460; first compound 0.005 µM
  relative viability: 0.983
NCI-H460; first compound 0.01581 µM
  relative viability: 0.948
NCI-H460; first compound 0.05 µM
  relative viability: 0.972
NCI-H460; first compound 0.1581 µM
  relative viability: 1.01
NCI-H460; first compound 0.5 µM
  relative viability: 0.96
NCI-H838; first compound 0.005 µM
  relative viability: 1.06
NCI-H838; first compound 0.01581 µM
  relative viability: 0.952
NCI-H838; first compound 0.05 µM
  relative viability: 1.05
NCI-H838; first compound 0.5 µM
  relative viability: 1.03
SK-LU-1; first compound 0.005 µM
  relative viability: 0.794
SK-LU-1; first compound 0.01581 µM
  relative viability: 0.863
SK-LU-1; first compound 0.05 µM
  relative viability: 0.885
SK-LU-1; first compound 0.1581 µM
  relative viability: 0.762
SK-LU-1; first compound 0.5 µM
  relative viability: 0.829

Source: the supplement of paper PMC10307832
